Experimental data as given in patent publication US8877773B2, “Methods for treating chronic obstructive pulmonary disease” (Indiana University Research and Technology Corporation, priority 2009, dated 2014).
Entries after “also recorded” stand apart in the source; their conditions may differ.

Assays:
Assay type in all cases: in vivo, rat
[1] = test system: panic-prone (1-AG treated) rats; test: Sodium lactate (NaLac) challenge in panic-prone rats: open field test; conditions: 30 mg/kg i.p. 30 min prior to NaLac, experiment 5
Procedure: (§1) The open-field arena covered an area of 0.9 m×0.9 m, with 0.4 m high walls. The open-field arena was divided into a 6×6 grid of equally-sized squares using black tape (36 total squares) with 4 squares forming the centre; 12 squares forming the middle perimeter; and 20 squares forming the outer perimeter. The test started by placing a rat in the centre. The behavior of each rat in the open-field arena was recorded on video and scored afterwards by an observer blind to the experimental treatment of each rat. Time spent in each region of the open-field was recorded.
In experiments 4-6, rats were made panic vulnerable with 1-AG. […] In experiment 5, baseline in an open field (OF) behavior test of anxiety was assessed (n=8) prior to 1-AG infusions. […] In experiment 7, control rats (no 1-AG or NaLac treatment) were assessed in a SI test.
All adult male Sprague-Dawley rats were anesthetized and surgically implanted with telemetrical probes to measure cardiovascular activity prior to and during lactate infusions. After a 3 day recovery, baseline open field behavior was assessed (n=8), then rats were anaesthetized and had osmotic minipumps (previously filled with 1-AG) stereotaxically implanted unilaterally into the DMH. […] Immediately following the lactate challenge, the rats were assessed for anxiety using the open field test.

[2] = test system: rats exposed to hypercarbic gas; test: Hypercarbic gas (20% CO2) challenge: MAP, HR, locomotor activity, fecal pellets
Procedure: Prior to surgery, rats were anesthetised with a nose cone connected to an isoflurane system (MGX Research Machine; Vetamic, Rossville Ind., USA) during the surgery. […] Briefly, cardiovascular responses were measured by a femoral arterial line connected to a telemetric probe that contained a pressure transducer [Cat. no. C50-PXT, Data Sciences International (DSI), St. Paul, Minn., USA]. DSI dataquest software was used to monitor and record MAP and HR. For the duration of each experiment, MAP and HR were recorded continuously in freely moving conscious rats. Data were analyzed during the period 5 min prior to, 5 min during, and 5 min following the gas challenges. The data reported are changes in HR and MAP, expressed in 1 min bins, relative to the average of the baseline measurement (t−5 min to t−1 min) from each rat.
Flow cages (12 in. width×12 in. height×24 in. length) were custom built using Plexiglas®. When the lid of the cage was latched, gases could only enter the cage through an inlet connector (for the gas infusion) and could only exit the cage through an outlet connector. The gas flow into the cages was controlled using a 2-stage regulator (Praxair, Inc., Danbury, Conn., USA) at a pressure of 0.6 Bar.
(§2) On day 1, rats (n=3/group) were selected from their home cages and placed into experimental cages containing atmospheric air. […] Fecal pellets were counted in cages at the end of gas challenges. In order to assess anxiety-like behavioural responses following exposure to hypercarbic gas, rats were immediately transferred to an adjacent room and place in the center square of an open-field box for a 5 min test. On day 2, the experiment was repeated, but the treatments were reversed for each rat. For instance, rats that received atmospheric gas challenge on day 1 received the hypercapnic gas challenge on day 2.
(§3) All rats received hypercarbic gas infusions as described in detail in Experiment 11. […] Blood pressure, heart rate, locomotor activity, number of fecal pellets and anxiety-like behavior were assessed as described in Experiment 11.
(§4) Dependent variables for analyses of cardiovascular responses (HR, MAP) and locomotor activity were analysed using a […], using gas infusion as the between-subjects factor and time as a within-subjects factor. Dependent variables for the number of fecal pellets and open-field anxiety test (i.e., time spent in each section, line crossings) were analysed using a one-way ANOVA with gas infusion in Experiment 11 and drug treatment in Experiment 12 as the between-subjects factors. […] Within-subjects comparisons were also made on the MAP and HR measures using a Dunnett's test for multiple comparisons with a single control using the 5 Min baseline measurement as the control. The alpha level was set at 0.05 in all cases.

[3] = test system: rats exposed to hypercarbic gas; test: Hypercarbic gas (20% CO2) challenge: open-field test; conditions: 30 mg/kg i.p.
Procedure: as §2
as §1, with “90 cm×90 cm,” for “0.9 m×0.9 m,”, “40 cm” for “0.4 m”, “center;” for “centre;”, “center.” for “centre.”, “observer (PLJ)” for “observer”, “recorded. In addition, locomotor activity was assessed by counting the number of times the rat's entire body (excluding tail) completely crossed into another square.” for “recorded.”
as §3, §4

[4] = 20% CO2, 30 mg/kg i.p. 30 min prior

In the case of `Cc1nc2ccc(NC(=O)Nc3ccnc4cccnc34)cc2o1` [SB334867, N-(2-Methyl-6-benzoxazolyl)-N′-1,5-naphthyridin-4-yl urea], the “anxiety-like responses (decreased time spent in center of open field) after NaLac challenge” value [1] is reported as “attenuated”, the “hypercarbic gas-induced changes in MAP (pressor response)” value ([2]; 20% CO2/normoxic gas 5 min, 30 mg/kg i.p. 30 min prior) is reported as “attenuated” and the hypercarbic gas-induced bradycardia ([2]; 20% CO2/normoxic gas 5 min, 30 mg/kg i.p. 30 min prior, 30 mg/kg) is reported as “without altering; also recorded: had no effect”. The “hypercarbic gas-induced increase in numbers of fecal pellets” value [2, 4] was “attenuated”, the “locomotor responses over time prior to, during or after hypercarbic gas” value [2, 4] was “Neither the vehicle nor SB334867 treated rats had a change in locomotor responses” and the “locomotor activity prior to hypercarbic gas infusion” value ([2]; baseline, 30 mg/kg i.p., vs vehicle-treated rats) was “higher”. For the same compound, the “time spent in the center of open field after hypercarbic gas” value ([3]; between groups) was “No differences”, the “time spent in the outer perimeter of open field after hypercarbic gas” value ([3]; between groups) was “No differences” and the “hypercapnic gas-induced anxiety responses” value ([3]; 20% CO2/normoxic gas) was “attenuated”. The “time in the middle perimeter region of open field after hypercarbic gas” value ([3]; SB/CO2 vs Veh/CO2 group) was “significantly more time”.
